Reference: ChEMBL document CHEMBL5729210, “Benzodiazepine derivatives as RSV inhibitors” (2022)

Experiment: RSV-A Assay: The description is Japanese.

O=C1Nc2ccccc2C(c2ccccc2)=NC1Nc1nnc(-c2ccncn2)o1 (stereo not given) and O=C1Nc2ccccc2C(c2ccccc2)=NC1Nc1nnc(-c2cnccn2)o1 (stereo not given) cannot be ordered by EC50: > 0.8 µM for the first, > 0.8 µM for the second.

Cc1ccc(-c2nnc(NC3N=C(c4ccccc4)c4ccccc4NC3=O)o2)o1 (stereo not given) and O=C1Nc2ccccc2C(c2ccccc2)=NC1Nc1nnc(-c2ccc(Cl)o2)o1 (stereo not given) cannot be ordered by EC50: > 0.8 µM for the first, > 0.8 µM for the second.

O=C1Nc2ccccc2C(c2ccccc2)=NC1Nc1nnc(-c2ccc(F)cc2F)o1 (stereo not given) and O=C1Nc2ccccc2C(c2ccccc2)=NC1Nc1nnc(-c2ccccc2F)o1 (stereo not given) cannot be ordered by EC50: > 0.8 µM for the first, > 0.8 µM for the second.

CS(=O)(=O)c1ccc(-c2nnc(NC3N=C(c4ccccc4)c4ccccc4NC3=O)o2)cc1 (stereo not given) and O=C1Nc2ccccc2C(c2ccccc2)=N[C@H]1Nc1nnc(-c2ccc(F)cc2)o1 cannot be ordered by EC50: > 0.8 µM for the first, > 0.8 µM for the second.

O=C1Nc2ccccc2C(c2ccccc2)=NC1Nc1nc(Cl)ns1 (stereo not given) and O=C1Nc2ccccc2C(c2ccccc2)=NC1Nc1nc(-c2ccccc2)ns1 (stereo not given) cannot be ordered by EC50: > 0.8 µM for the first, > 0.8 µM for the second.

O=C1Nc2ccccc2C(c2ccccc2)=NC1Nc1nnc(-c2cccc(F)c2)o1 (stereo not given) and COc1cccc(-c2nnc(NC3N=C(c4ccccc4)c4ccccc4NC3=O)o2)c1 (stereo not given) cannot be ordered by EC50: > 0.8 µM for the first, > 0.8 µM for the second.

CN1CCc2nc(-c3nnc(NC4N=C(c5ccccc5)c5ccccc5NC4=O)o3)sc2C1 (stereo not given) and Cc1ccc(-c2nnc(NC3N=C(c4ccccc4)c4ccccc4NC3=O)o2)s1 (stereo not given) cannot be ordered by EC50: > 0.8 µM for the first, > 0.8 µM for the second.

O=C1Nc2ccccc2C(c2ccccc2)=NC1Nc1nnc(Cc2ccccc2)o1 (stereo not given) and O=C1Nc2ccccc2C(c2ccccc2)=NC1Nc1nnc(-c2ccccc2)o1 (stereo not given) cannot be ordered by EC50: > 0.8 µM for the first, > 0.8 µM for the second.

O=C1Nc2ccccc2C(c2ccccc2)=NC1Nc1nnc(-c2cccc3ccccc23)o1 (stereo not given) and COc1ccccc1-c1nnc(NC2N=C(c3ccccc3)c3ccccc3NC2=O)o1 (stereo not given) cannot be ordered by EC50: > 0.8 µM for the first, > 0.8 µM for the second.

CC(=O)N1CCC(c2nnc(NC3N=C(c4ccccc4)c4ccccc4NC3=O)o2)CC1 (stereo not given) and CN1CCC(c2nnc(NC3N=C(c4ccccc4)c4ccccc4NC3=O)o2)CC1 (stereo not given) cannot be ordered by EC50: > 0.8 µM for the first, > 0.8 µM for the second.

O=c1c(Br)cccn1Cc1ccccc1 and O=C1Nc2ccccc2C(c2ccccc2)=NC1Nc1nnco1 (stereo not given) cannot be ordered by EC50: > 0.8 µM for the first, > 0.8 µM for the second.

O=C1Nc2ccccc2C(c2ccccc2)=NC1Nc1nnc(-c2ncccn2)o1 (stereo not given) and O=C1Nc2ccccc2C(c2ccccc2)=NC1Nc1nnc(-c2cccnn2)o1 (stereo not given) cannot be ordered by EC50: > 0.8 µM for the first, > 0.8 µM for the second.

O=C1Nc2ccccc2C(c2ccccc2)=NC1Nc1nnc(-c2ccc(F)cc2)s1 (stereo not given) and O=C1Nc2ccccc2C(c2ccccc2)=NC1Nc1nnc(-c2ccncc2)s1 (stereo not given) cannot be ordered by EC50: > 0.8 µM for the first, > 0.8 µM for the second.

O=C1Nc2ccccc2C(c2ccccc2)=NC1Nc1ncc(-c2ccccc2)o1 (stereo not given) and O=C1Nc2ccccc2C(c2ccccc2)=NC1Nc1nc(-c2ccccc2)no1 (stereo not given) cannot be ordered by EC50: > 0.8 µM for the first, > 0.8 µM for the second.

Compared with COc1cc(-c2nnc(NC3N=C(c4ccccc4)c4ccccc4NC3=O)o2)ccn1 (stereo not given), O=C1Nc2ccccc2C(c2ccccc2)=NC1Nc1nnc(-c2ccnc(F)c2)o1 (stereo not given) is lower in EC50: > 0.8 µM for the first, < 0.4 µM for the second. The second is the more potent here.

Cc1nnc(NC2N=C(c3ccccc3)c3ccccc3NC2=O)o1 (stereo not given) and O=C1Nc2ccccc2C(c2ccccc2)=NC1Nc1nnc(C2CC2)o1 (stereo not given) cannot be ordered by EC50: > 0.8 µM for the first, > 0.8 µM for the second.

O=C1Nc2ccccc2C(c2ccccc2)=NC1Nc1nnc(-c2cncs2)o1 (stereo not given) and O=C1Nc2ccccc2C(c2ccccc2)=NC1Nc1nnc(-c2cnco2)o1 (stereo not given) cannot be ordered by EC50: > 0.8 µM for the first, > 0.8 µM for the second.

O=C1Nc2ccccc2C(c2ccccc2)=NC1Nc1nnc(-c2cncnc2)o1 (stereo not given) and O=C1Nc2ccccc2C(c2ccccc2)=NC1Nc1nnc(-c2cccnc2)o1 (stereo not given) cannot be ordered by EC50: > 0.8 µM for the first, > 0.8 µM for the second.

Going from Cc1cccc(-c2nnc(NC3N=C(c4ccccc4)c4ccccc4NC3=O)o2)n1 (stereo not given) to COc1cccc(-c2nnc(NC3N=C(c4ccccc4)c4ccccc4NC3=O)o2)n1 (stereo not given), the EC50 falls from > 0.8 µM to < 0.4 µM. The second is the more potent here.

O=C1Nc2ccccc2C(c2ccccc2)=NC1Nc1nc(-c2ccccc2)cs1 (stereo not given) and O=C1Nc2ccccc2C(c2ccccc2)=NC1Nc1ncc(-c2ccccc2)s1 (stereo not given) cannot be ordered by EC50: > 0.8 µM for the first, > 0.8 µM for the second.

O=C1Nc2ccccc2C(c2ccccc2)=NC1Nc1nnc(-c2ccccc2)[nH]1 (stereo not given) and O=C1Nc2ccccc2C(c2ccccc2)=NC1Nc1nnc(-c2ccccc2)s1 (stereo not given) cannot be ordered by EC50: > 0.8 µM for the first, > 0.8 µM for the second.

CN(C)Cc1ccc(-c2nnc(NC3N=C(c4ccccc4)c4ccccc4NC3=O)o2)o1 (stereo not given) and COCc1ccc(-c2nnc(NC3N=C(c4ccccc4)c4ccccc4NC3=O)o2)o1 (stereo not given) cannot be ordered by EC50: > 0.8 µM for the first, > 0.8 µM for the second.

O=C1Nc2ccccc2C(c2ccccc2)=NC1Nc1cc(Oc2ccccc2)ncn1 (stereo not given) and O=C1Nc2ccccc2C(c2ccccc2)=NC1Nc1cc(-c2ccccc2)ncn1 (stereo not given) cannot be ordered by EC50: > 0.8 µM for the first, > 0.8 µM for the second.

O=C1Nc2ccccc2C(c2ccccc2)=NC1Nc1ccnc(-c2ccccc2)n1 (stereo not given) and O=C1Nc2ccccc2C(c2ccccc2)=NC1Nc1ncc2ccccc2n1 (stereo not given) cannot be ordered by EC50: > 0.8 µM for the first, > 0.8 µM for the second.

O=C1Nc2ccccc2C(c2ccccc2)=NC1Nc1nc2ccccc2o1 (stereo not given) and O=C1Nc2ccccc2C(c2ccccc2)=NC1Nc1nc2ccc(Cl)cc2o1 (stereo not given) cannot be ordered by EC50: > 0.8 µM for the first, > 0.8 µM for the second.

Cn1ccnc1-c1nnc(NC2N=C(c3ccccc3)c3ccccc3NC2=O)o1 (stereo not given) and Cn1cnc(-c2nnc(NC3N=C(c4ccccc4)c4ccccc4NC3=O)o2)c1 (stereo not given) cannot be ordered by EC50: > 0.8 µM for the first, > 0.8 µM for the second.

First: COc1cc(-c2nnc(NC3N=C(c4ccccc4)c4ccccc4NC3=O)o2)ccc1F (stereo not given)
Second: N#Cc1ccc(-c2nnc(NC3N=C(c4ccccc4)c4ccccc4NC3=O)o2)cc1F (stereo not given)
The EC50 of the first is lower: < 0.4 µM for the first, > 0.8 µM for the second.

Going from O=C1Nc2ccccc2C(c2ccccc2)=NC1Nc1nnc(-c2ccc(Cl)cc2)o1 (stereo not given) to COc1ccc(-c2nnc(NC3N=C(c4ccccc4)c4ccccc4NC3=O)o2)cc1 (stereo not given), the EC50 rises from < 0.4 µM to > 0.8 µM. The first is the more potent here.

CCOC(=O)c1nnc(NC2N=C(c3ccccc3)c3ccccc3NC2=O)o1 (stereo not given) and Cc1cc(-c2nnc(NC3N=C(c4ccccc4)c4ccccc4NC3=O)o2)on1 (stereo not given) cannot be ordered by EC50: > 0.8 µM for the first, > 0.8 µM for the second.

O=C1Nc2ccccc2C(c2ccccc2)=NC1Nc1nnc(-c2cccc(C(F)(F)F)c2)o1 (stereo not given) and O=C1Nc2ccccc2C(c2ccccc2)=NC1Nc1nnc(-c2ccc(C(F)(F)F)cc2)o1 (stereo not given) cannot be ordered by EC50: > 0.8 µM for the first, > 0.8 µM for the second.

N#Cc1cccc(-c2nnc(NC3N=C(c4ccccc4)c4ccccc4NC3=O)o2)c1 (stereo not given) and N#Cc1cc(-c2nnc(NC3N=C(c4ccccc4)c4ccccc4NC3=O)o2)ccn1 (stereo not given) cannot be ordered by EC50: > 0.8 µM for the first, > 0.8 µM for the second.

O=C1Nc2ccccc2C(c2ccccc2)=NC1Nc1nnc(-c2ccc(=O)[nH]c2)o1 (stereo not given) and O=C1Nc2ccccc2C(c2ccccc2)=NC1Nc1nnc(-c2cc[nH]c(=O)c2)o1 (stereo not given) cannot be ordered by EC50: > 0.8 µM for the first, > 0.8 µM for the second.

First: COc1ccc(-c2nnc(NC3N=C(c4ccccc4)c4ccccc4NC3=O)o2)cn1 (stereo not given)
Second: COc1ccnc(-c2nnc(NC3N=C(c4ccccc4)c4ccccc4NC3=O)o2)c1 (stereo not given)
The EC50 of the first is lower: < 0.4 µM for the first, > 0.8 µM for the second.

O=C1Nc2ccccc2C(c2ccccc2)=NC1Nc1nnc(-c2ccc(F)cn2)o1 (stereo not given) and O=C1Nc2ccccc2C(c2ccccc2)=NC1Nc1nnc(-c2ccc(C(F)(F)F)cn2)o1 (stereo not given) cannot be ordered by EC50: > 0.8 µM for the first, > 0.8 µM for the second.

O=C1Nc2ccccc2C(c2ccccc2)=NC1Nc1nnc(-c2ncco2)o1 (stereo not given) and O=C1Nc2ccccc2C(c2ccccc2)=N[C@H]1Nc1nnc(-c2ccco2)o1 cannot be ordered by EC50: > 0.8 µM for the first, > 0.8 µM for the second.

O=C1Nc2ccccc2C(c2ccccc2)=NC1Nc1nnc(C2CCOCC2)o1 (stereo not given) and O=C1Nc2ccccc2C(c2ccccc2)=NC1Nc1nnc(C2CCNCC2)o1 (stereo not given) cannot be ordered by EC50: > 0.8 µM for the first, > 0.8 µM for the second.

O=C1Nc2ccccc2C(c2ccccc2)=NC1Nc1nnc(-c2cc3cccnc3s2)o1 (stereo not given) and O=C1Nc2ccccc2C(c2ccccc2)=NC1Nc1nnc(-c2nccs2)o1 (stereo not given) cannot be ordered by EC50: > 0.8 µM for the first, > 0.8 µM for the second.

O=C1Nc2ccccc2C(c2ccccc2)=NC1Nc1cc(N2CCOCC2)ncn1 (stereo not given) and O=C1Nc2ccccc2C(c2ccccc2)=NC1Nc1nnc([C@@H]2COCCN2)o1 (stereo not given in full) cannot be ordered by EC50: > 0.8 µM for the first, > 0.8 µM for the second.

Cn1nccc1-c1nnc(NC2N=C(c3ccccc3)c3ccccc3NC2=O)o1 (stereo not given) and COCc1cccc(-c2nnc(NC3N=C(c4ccccc4)c4ccccc4NC3=O)o2)n1 (stereo not given) cannot be ordered by EC50: > 0.8 µM for the first, > 0.8 µM for the second.

O=C1Nc2ccccc2C(c2ccccc2)=NC1Nc1nnc(-c2ccc(OC(F)(F)F)cc2)o1 (stereo not given) and O=C1Nc2ccccc2C(c2ccccc2)=NC1Nc1nnc([C@H]2COCCN2)o1 (stereo not given in full) cannot be ordered by EC50: > 0.8 µM for the first, > 0.8 µM for the second.

For COc1ccc(CN2C(=O)C(NC(=S)NC(=O)c3ccccc3)N=C(c3ccccc3)c3ccccc32)cc1 (stereo not given), the EC50 was > 0.8 µM.

In the case of N#Cc1cc(-c2nnc(NC3N=C(c4ccccc4)c4ccccc4NC3=O)o2)ccc1F (stereo not given), the EC50 is reported as “in the range around 0.6 µM”.
With Cn1cc(-c2nnc(NC3N=C(c4ccccc4)c4ccccc4NC3=O)o2)cn1 (stereo not given) the EC50 was “in the range around 0.6 µM”.
In the case of O=C1Nc2ccccc2C(c2ccccc2)=N[C@@H]1Nc1nnc(-c2ccco2)o1, the EC50 is reported as “in the range around 0.6 µM”.
For COc1ccc(CN2C(=O)C(Nc3ccc(-c4ccccc4)nn3)N=C(c3ccccc3)c3ccccc32)cc1 (stereo not given), the EC50 was “in the range around 0.6 µM”.
For O=C1Nc2ccccc2C(c2ccccc2)=NC1Nc1nnc(-c2cscn2)o1 (stereo not given), the EC50 was “in the range around 0.6 µM”.
In the case of N#Cc1ccc(-c2nnc(NC3N=C(c4ccccc4)c4ccccc4NC3=O)o2)nc1 (stereo not given), the EC50 is reported as “in the range around 0.6 µM”.
In the case of O=C1Nc2ccccc2C(c2ccccc2)=NC1Nc1nnc(-c2ccc3ccccc3c2)o1 (stereo not given), the EC50 is reported as “in the range around 0.6 µM”.
In the case of O=C1Nc2ccccc2C(c2ccccc2)=NC1Nc1nnc(-c2ccc3nc[nH]c3c2)o1 (stereo not given), the EC50 is reported as > 0.8 µM and in the range around 0.6 µM.
In the case of N#Cc1ccc(-c2nnc(NC3N=C(c4ccccc4)c4ccccc4NC3=O)s2)cc1 (stereo not given), the EC50 is reported as “in the range around 0.6 µM”.
For NS(=O)(=O)c1ccc(-c2nnc(NC3N=C(c4ccccc4)c4ccccc4NC3=O)o2)cc1 (stereo not given), the EC50 was “in the range around 0.6 µM”.
In the case of O=C1Nc2ccccc2C(c2ccccc2)=N[C@@H]1Nc1nnc(-c2ccc(F)cc2)o1, the EC50 is reported as “in the range around 0.6 µM”.
For Cc1cc(-c2nnc(NC3N=C(c4ccccc4)c4ccccc4NC3=O)o2)ccc1C#N (stereo not given), the EC50 was “in the range around 0.6 µM”.
In the case of O=C1Nc2ccccc2C(c2ccccc2)=NC1Nc1nnc(-c2ccccn2)o1 (stereo not given), the EC50 is reported as “in the range around 0.6 µM”.
With N#Cc1ccc(-c2nnc(NC3N=C(c4ccccc4)c4ccccc4NC3=O)o2)cc1 (stereo not given) the EC50 was “in the range around 0.6 µM”.
With CC(C)Oc1cccc(-c2nnc(NC3N=C(c4ccccc4)c4ccccc4NC3=O)o2)c1 (stereo not given) the EC50 was “in the range around 0.6 µM”.
For O=C1Nc2ccccc2C(c2ccccc2)=NC1Nc1nnc(-c2ccc(F)nc2)o1 (stereo not given), the EC50 was “in the range around 0.6 µM”.
With O=C1Nc2ccccc2C(c2ccccc2)=NC1Nc1nnc(-c2ccc(-n3cccn3)cc2)o1 (stereo not given) the EC50 was “in the range around 0.6 µM”.
For O=C1Nc2ccccc2C(c2ccccc2)=NC1Nc1nnc(-c2ccncc2)o1 (stereo not given), the EC50 was “in the range around 0.6 µM”.
For COc1ccc(-c2nnc(NC3N=C(c4ccccc4)c4ccccc4NC3=O)o2)nc1 (stereo not given), the EC50 was “in the range around 0.6 µM”.
